# Experimental data as given in US20260272797A1, “FRAGRANCE COMPOSITION” (GIVAUDAN SA, priority 2023, published 2026).
# Test: Gas-phase evaluation of each fragrance ingredient alone against model scalp malodour, MiniVAS device, panel of 5 experts
# Details: Table 3, air flow 50 ml/min, scale of 1-5 (1=barely noticeable, 5=very strong)
# Experimental: In a first set of experiments, the scalp malodour counteractancy of 173 fragrance ingredients was evaluated by panel of 5 experts.
# The evaluation was performed in the gas phase, using a MiniVAS™ device (ex Givaudan SA). This device is a regulating means that comprises a plurality of channels adapted to convey a gas (more particularly air) through cartridges, each cartridge containing a fragrance ingredient adsorbed onto an adsorbent. The air flows coming from the different cartridges are admixed and conveyed to the user's nose through a tubing fitted with an olfactometer funnel. Thus, by opening and closing channels and maintaining these opened and closed, respectively, for predetermined times, the regulating means can determine which fragrance ingredients and how much thereof are conveyed and when, and thus alter the nature of the fragrance perceived by the user. A description of the device can be found in WO2014154909A1, page 2, line 11 to page 4, line 7, and in H. R. Gygax et al. “Evolution of Real Time Aroma Creation at Givaudan”, poster presented at the 12th Weurman Flavour Research Symposium. July 2008. Interlaken, Switzerland; DOI: 10.13140/2.1.1924.0641.
# For the sake of the present evaluation, one cartridge contained the scalp malodour (in the form of a model malodour) and each fragrance ingredient was assigned to another cartridge. The malodour counteractancy of each fragrance ingredient was evaluated separately against the scalp malodour. A constant air flow rate of 50 ml/min was used for all measurements. The perceived malodour intensity, as well as the fragrance intensity, were ranked on a scale of 1-5 (1=barely noticeable, 2=weak, 3=medium, 4=strong and 5=very strong).
row,Compound,MO intensity
1,"CC(=O)C1(C)CC2=C(CCCC2(C)C)CC1C (stereo not shown) [1-(2,3,8,8-tetramethyl-1,2,3,4,5,6,7,8-octahydronaphthalen-2-yl)ethanone]",1
2,"CC(=O)c1cc2c(cc1C)C(C)(C)C(C)CC2(C)C (stereo not shown) [1-(3,5,5,6,8,8-hexamethyl-5,6,7,8-tetrahydronaphthalen-2-yl)ethanone]",3
3,CCC(O)COC1CCCCC1C(C)(C)C (stereo not shown) [1-((2-(tert-butyl)cyclohexyl)oxy)butan-2-ol],2.3
4,"CC(=O)C1CC/C=C\C(C)C(C)/C=C\C/C=C/1C (stereo not shown) [1-((2E,5Z,9Z)-2,7,8-trimethylcyclododeca-2,5,9-trien-1-yl)ethanone]",1
5,CCCCOC(=O)C(C)OC(=O)CCC (stereo not shown) [1-butoxy-1-oxopropan-2-yl butanoate],1
6,CC(C)=CCC(C)C1CC1(C)CO (stereo not shown) [1-methyl-2-(5-methylhex-4-en-2-yl)cyclopropylmethanol],2.7
7,"CC1(CO)CC1CC1CC2CC2(C)C1(C)C (stereo not shown) [1-methyl-2-((1,2,2-trimethylbicyclo[3.1.0]hexan-3-yl)methyl)cyclopropyl)methanol]",3.3
8,CC(=O)c1ccccc1 [1-phenylethanone],5
9,c1ccc2[nH]ccc2c1 [1H-indole],4
10,"CCCCCC1(C)CCC(C)(C)C1=O (stereo not shown) [2,2,5-trimethyl-5-pentylcyclopentanone]",3.5
11,"Cc1ncsc1CCO [2-(4-Methyl-1,3-thiazol-5-yl)ethanoL]",1
12,"CC(=O)OCCC1=CCC2CC1C2(C)C (stereo not shown) [2-(6,6-dimethylbicyclo[3.1.1]hept-2-en-2-yl)ethyl acetate]",2
13,CC(=O)OC1CCCCC1C(C)(C)C (stereo not shown) [2-(tert-butyl)cyclohexyl acetate],2
14,CCOc1cc(C)ccc1O [2-ethoxy-4-methylphenol],2.8
15,CC1CCC(C(C)C)C(O)C1 (stereo not shown) [2-isopropyl-5-methylcyclohexanol],1.2
16,CCCc1ccc(O)c(OC)c1 [2-methoxy-4-propylphenol],2
17,CCCCCCCCCC(C)C=O (stereo not shown) [2-methylundecanal],3.5
18,"CC(C)=CCCC(C)CCO (stereo not shown) [3,7-dimethyloct-6-en-1-ol]",2.5
19,"CC(C)=CCCC(C)CC=O (stereo not shown) [3,7-dimethyloct-6-enal]",3
20,"CC(C)CCCC(C)CCO (stereo not shown) [3,7-dimethyloctan-1-ol]",4.3
21,"CC(CCO)CCCC(C)(C)O (stereo not shown) [3,7-dimethyloctane-1,7-diol]",1
22,Cc1cc(CC(C)C)ccc1CCC=O [3-(4-(2-methylpropyl)-2-methylphenyl)propanal],2.8
23,CC(C=O)Cc1ccc(C(C)(C)C)cc1 (stereo not shown) [3-(4-(tert-butyl)phenyl)-2-methylpropanal],2.8
24,COc1ccc(CC(C)C=O)cc1 (stereo not shown) [3-(4-methoxyphenyl)-2-methylpropanal],1
25,Cc1occc(=O)c1O [3-hydroxy-2-methyl-4H-pyran-4-one],4
26,CC(=O)C(C)O (stereo not shown) [3-hydroxybutan-2-one],4
27,CC(CCO)CCc1ccccc1 (stereo not shown) [3-methyl-5-phenylpentan-1-ol],2
28,"CC1COCc2cc3c(cc21)C(C)(C)C(C)C3(C)C (stereo not shown) [4,6,6,7,8,8-hexamethyl-1,3,4,6,7,8-hexahydrocyclopenta[g]isochromene]",3
29,C=CCc1ccc(O)c(OC)c1 [4-allyl-2-methoxyphenol],4

# Same assay, conditions: Table 3, gas phase, expert description
row,Compound,Scalp MOC of ingredient alone
1,"CC(=O)C1(C)CC2=C(CCCC2(C)C)CC1C (stereo not shown) [1-(2,3,8,8-tetramethyl-1,2,3,4,5,6,7,8-octahydronaphthalen-2-yl)ethanone]",No effect
2,CCC(O)COC1CCCCC1C(C)(C)C (stereo not shown) [1-((2-(tert-butyl)cyclohexyl)oxy)butan-2-ol],Coverage
3,"CC(=O)C1CC/C=C\C(C)C(C)/C=C\C/C=C/1C (stereo not shown) [1-((2E,5Z,9Z)-2,7,8-trimethylcyclododeca-2,5,9-trien-1-yl)ethanone]",No effect
4,CCCCOC(=O)C(C)OC(=O)CCC (stereo not shown) [1-butoxy-1-oxopropan-2-yl butanoate],No effect
5,"Cc1ncsc1CCO [2-(4-Methyl-1,3-thiazol-5-yl)ethanoL]",No effect
6,"CC(CCO)CCCC(C)(C)O (stereo not shown) [3,7-dimethyloctane-1,7-diol]",No effect
7,COc1ccc(CC(C)C=O)cc1 (stereo not shown) [3-(4-methoxyphenyl)-2-methylpropanal],No effect

# Same assay, conditions: Table 4, air flow 50 ml/min, scale of 1-5
row,Compound,MO intensity
1,CC(=O)c1ccc2ccccc2c1 [1-(2-naphtalenyl)-ethanone],1
2,"CC(=O)C1=C(C)C2C[C@@]3(C1)C(CC[C@@H]3C)C2(C)C (stereo partly drawn) [1-((1S,8aS)-1,4,4,6-tetramethyl-2,3,3a,4,5,8-hexahydro-1H-5,8a-methanoazulen-7-yl)ethanone]",1
3,"CC1CC(C)(c2ccccc2)OC(C)O1 (stereo not shown) [2,4,6-trimethyl-4-phenyl-1,3-dioxane]",1
4,"CC1CC(C)(c2ccccc2)CO1 (stereo not shown) [2,4-dimethyl-4-phenyltetrahydrofuran]",4.1
5,"CC1=CC(C)C(C=O)CC1 (stereo not shown) [2,4-dimethylcyclohex-3-ene-1-carbaldehyde]",1
6,"CC1=CC(C)C(C=O)CC1 (stereo not shown) [2,4-dimethylcyclohex-3-enecarbaldehyde]",3.8
7,CC(C)C(=O)OCCOc1ccccc1 [2-(phenoxy)ethyl 2-methylpropanoate],2.3
8,N#CC(=C1CCCCC1)c1ccccc1 [2-cyclohexylidene-2-phenylacetonitrile],1
9,CCC1OC(C)=C(O)C1=O (stereo not shown) [2-ethyl-4-hydroxy-5-methylfuran-3(2H)-one],4.5
10,CC(C)(O)Cc1ccccc1 [2-methyl-1-phenylpropan-2-ol],1
11,CCCC(=O)OC(C)(C)Cc1ccccc1 [2-methyl-1-phenylpropan-2-yl butanoate],3
12,"CCCC1CCOC(C)S1 (stereo not shown) [2-methyl-4-propyl-1,3-oxathiane]",1
13,OCCc1ccccc1 [2-phenylethanol],3.2
14,CC(=O)OCCc1ccccc1 [2-phenylethyl acetate],1
15,"CC(=O)OCCC(C)CCC=C(C)C (stereo not shown) [3,7-dimethyloct-6-en-1-yl acetate]",2
16,"CCC(C)(O)CCCC(C)C (stereo not shown) [3,7-dimethyloctan-3-ol]",3
17,CCCCC1COCC(C)C1OC(C)=O (stereo not shown) [3-butyl-5-methyltetrahydro-2H-pyran-4-yl acetate],1
18,"CCC(=O)C(C)CC=C(C)C (stereo not shown) [4,7-dimethyloct-6-en-3-one]",4
19,"CC(=O)CCC1=C(C)CCCC1(C)C [4-(2,6,6-trimethylcyclohex-1-en-1-yl)butan-2-one]",1
20,CC(C)=CCCC1=CCC(C=O)CC1 (stereo not shown) [4-(4-methylpent-3-en-1-yl)cyclohex-3-enecarbaldehyde],1

# Same assay, conditions: Table 4, gas phase, expert description
row,Compound,Scalp MOC of ingredient alone
1,"CC1=CC(C)C(C=O)CC1 (stereo not shown) [2,4-dimethylcyclohex-3-enecarbaldehyde]",Good coverage
2,"CC(=O)OCCC(C)CCC=C(C)C (stereo not shown) [3,7-dimethyloct-6-en-1-yl acetate]",Low coverage

# Test: Impact of fragrance ingredients on scalp malodour counteractancy of 80 fragrance compositions (Example 2 protocol, statistical presence)
# Details: Table 3; series of 80 fragrance compositions
# Experimental: In a second set of experiments, the impact of these fragrance ingredients on the scalp malodour counteractancy of a fragrance composition was assessed. The scalp malodour counteractancy of a series of 80 fragrance compositions was assessed by performing the evaluation protocol described in Example 2. […] Ingredients that were statistically more present in fragrances having a high malodour counteractancy were assigned a positive status, whereas ingredients that were statistically more present in compositions having a low malodour counteractancy were assigned a negative status.
row,Compound,Impact on scalp MOC of fragrance composition
1,"CC(=O)C1(C)CC2=C(CCCC2(C)C)CC1C (stereo not shown) [1-(2,3,8,8-tetramethyl-1,2,3,4,5,6,7,8-octahydronaphthalen-2-yl)ethanone]",Positive
2,"CC(=O)c1cc2c(cc1C)C(C)(C)C(C)CC2(C)C (stereo not shown) [1-(3,5,5,6,8,8-hexamethyl-5,6,7,8-tetrahydronaphthalen-2-yl)ethanone]",Positive
3,CCC(O)COC1CCCCC1C(C)(C)C (stereo not shown) [1-((2-(tert-butyl)cyclohexyl)oxy)butan-2-ol],Positive
4,"CC(=O)C1CC/C=C\C(C)C(C)/C=C\C/C=C/1C (stereo not shown) [1-((2E,5Z,9Z)-2,7,8-trimethylcyclododeca-2,5,9-trien-1-yl)ethanone]",Positive
5,CCCCOC(=O)C(C)OC(=O)CCC (stereo not shown) [1-butoxy-1-oxopropan-2-yl butanoate],Positive
6,CC(C)=CCC(C)C1CC1(C)CO (stereo not shown) [1-methyl-2-(5-methylhex-4-en-2-yl)cyclopropylmethanol],Positive
7,"CC1(CO)CC1CC1CC2CC2(C)C1(C)C (stereo not shown) [1-methyl-2-((1,2,2-trimethylbicyclo[3.1.0]hexan-3-yl)methyl)cyclopropyl)methanol]",Positive
8,CC(=O)c1ccccc1 [1-phenylethanone],Positive
9,c1ccc2[nH]ccc2c1 [1H-indole],Positive
10,"CCCCCC1(C)CCC(C)(C)C1=O (stereo not shown) [2,2,5-trimethyl-5-pentylcyclopentanone]",Positive
11,"Cc1ncsc1CCO [2-(4-Methyl-1,3-thiazol-5-yl)ethanoL]",Positive
12,"CC(=O)OCCC1=CCC2CC1C2(C)C (stereo not shown) [2-(6,6-dimethylbicyclo[3.1.1]hept-2-en-2-yl)ethyl acetate]",Positive
13,CC(=O)OC1CCCCC1C(C)(C)C (stereo not shown) [2-(tert-butyl)cyclohexyl acetate],Positive
14,CCOc1cc(C)ccc1O [2-ethoxy-4-methylphenol],Positive
15,CC1CCC(C(C)C)C(O)C1 (stereo not shown) [2-isopropyl-5-methylcyclohexanol],Positive
16,CCCc1ccc(O)c(OC)c1 [2-methoxy-4-propylphenol],Positive
17,CCCCCCCCCC(C)C=O (stereo not shown) [2-methylundecanal],Positive
18,"CC(C)=CCCC(C)CCO (stereo not shown) [3,7-dimethyloct-6-en-1-ol]",Positive
19,"CC(C)=CCCC(C)CC=O (stereo not shown) [3,7-dimethyloct-6-enal]",Positive
20,"CC(C)CCCC(C)CCO (stereo not shown) [3,7-dimethyloctan-1-ol]",Positive
21,"CC(CCO)CCCC(C)(C)O (stereo not shown) [3,7-dimethyloctane-1,7-diol]",Positive
22,Cc1cc(CC(C)C)ccc1CCC=O [3-(4-(2-methylpropyl)-2-methylphenyl)propanal],Positive
23,CC(C=O)Cc1ccc(C(C)(C)C)cc1 (stereo not shown) [3-(4-(tert-butyl)phenyl)-2-methylpropanal],Positive
24,COc1ccc(CC(C)C=O)cc1 (stereo not shown) [3-(4-methoxyphenyl)-2-methylpropanal],Positive
25,Cc1occc(=O)c1O [3-hydroxy-2-methyl-4H-pyran-4-one],Positive
26,CC(=O)C(C)O (stereo not shown) [3-hydroxybutan-2-one],Positive
27,CC(CCO)CCc1ccccc1 (stereo not shown) [3-methyl-5-phenylpentan-1-ol],Positive
28,"CC1COCc2cc3c(cc21)C(C)(C)C(C)C3(C)C (stereo not shown) [4,6,6,7,8,8-hexamethyl-1,3,4,6,7,8-hexahydrocyclopenta[g]isochromene]",Positive
29,C=CCc1ccc(O)c(OC)c1 [4-allyl-2-methoxyphenol],Positive

# Same assay, conditions: Table 4; series of 80 fragrance compositions
row,Compound,Impact on scalp MOC of fragrance composition
1,CC(=O)c1ccc2ccccc2c1 [1-(2-naphtalenyl)-ethanone],Negative
2,"CC(=O)C1=C(C)C2C[C@@]3(C1)C(CC[C@@H]3C)C2(C)C (stereo partly drawn) [1-((1S,8aS)-1,4,4,6-tetramethyl-2,3,3a,4,5,8-hexahydro-1H-5,8a-methanoazulen-7-yl)ethanone]",Negative
3,"CC1CC(C)(c2ccccc2)OC(C)O1 (stereo not shown) [2,4,6-trimethyl-4-phenyl-1,3-dioxane]",Negative
4,"CC1CC(C)(c2ccccc2)CO1 (stereo not shown) [2,4-dimethyl-4-phenyltetrahydrofuran]",Negative
5,"CC1=CC(C)C(C=O)CC1 (stereo not shown) [2,4-dimethylcyclohex-3-ene-1-carbaldehyde]",Negative
6,CC(C)C(=O)OCCOc1ccccc1 [2-(phenoxy)ethyl 2-methylpropanoate],Negative
7,N#CC(=C1CCCCC1)c1ccccc1 [2-cyclohexylidene-2-phenylacetonitrile],Negative
8,CCC1OC(C)=C(O)C1=O (stereo not shown) [2-ethyl-4-hydroxy-5-methylfuran-3(2H)-one],Negative
9,CC(C)(O)Cc1ccccc1 [2-methyl-1-phenylpropan-2-ol],Negative
10,CCCC(=O)OC(C)(C)Cc1ccccc1 [2-methyl-1-phenylpropan-2-yl butanoate],Negative
11,"CCCC1CCOC(C)S1 (stereo not shown) [2-methyl-4-propyl-1,3-oxathiane]",Negative
12,OCCc1ccccc1 [2-phenylethanol],Negative
13,CC(=O)OCCc1ccccc1 [2-phenylethyl acetate],Negative
14,"CC(=O)OCCC(C)CCC=C(C)C (stereo not shown) [3,7-dimethyloct-6-en-1-yl acetate]",Negative
15,"CCC(C)(O)CCCC(C)C (stereo not shown) [3,7-dimethyloctan-3-ol]",Negative
16,CCCCC1COCC(C)C1OC(C)=O (stereo not shown) [3-butyl-5-methyltetrahydro-2H-pyran-4-yl acetate],Negative
17,"CCC(=O)C(C)CC=C(C)C (stereo not shown) [4,7-dimethyloct-6-en-3-one]",Negative
18,"CC(=O)CCC1=C(C)CCCC1(C)C [4-(2,6,6-trimethylcyclohex-1-en-1-yl)butan-2-one]",Negative
19,CC(C)=CCCC1=CCC(C=O)CC1 (stereo not shown) [4-(4-methylpent-3-en-1-yl)cyclohex-3-enecarbaldehyde],Negative
